Article PMC9226319, “Peripherally restricted transthyretin-based delivery system for probes and therapeutics avoiding opioid-related side effects” (Nature Communications, 2022)
Where “and” joins values, the source holds several entries; their conditions need not be identical. Equal entries are not always repeated. Where two headings read alike, the source gives them in different places.

Assays:
male Sprague-Dawley rats [1] = conditions: rat, in vivo
male Sprague-Dawley rats [2] = experiment: Gastrointestinal (GI) transit (charcoal meal) assays; assay type: in vivo, rat; conditions: rat, in vivo
TTR in human serum = TTR in human serum (Homo sapiens, UniProt P02766); experiment: TTR serum fluorescent probe exclusion (FPE) selectivity assay; assay type: binding; conditions: ligand 10 µM; for % TTR occupancy in human serum: FPE probe 3.6 µM, 3 h reading relative to probe alone, text mean ± s.d., table replicates; for %FPE probe fluorescence: human serum, replicates
[3] = rat, single SC dose 16 µmol/kg
in vivo [4] = conditions: male, Sprague Dawley, rat, sc, 16 umol/kg
in vivo [5] = conditions: male, Sprague Dawley, rat, iv, 4.84 umol/kg
[6] = rat, single IV bolus 4.84 µmol/kg

Row | SMILES | hot plate latency (male Sprague-Dawley rats [1]; sc) | % TTR occupancy in human serum (TTR in human serum) | %FPE probe fluorescence (TTR in human serum; time 0.000 h) [%] | %FPE probe fluorescence (TTR in human serum; time 0.083 h) | %FPE probe fluorescence (TTR in human serum; time 0.250 h) | %FPE probe fluorescence (TTR in human serum; time 0.500 h) | %FPE probe fluorescence (TTR in human serum; time 1.000 h) | %FPE probe fluorescence (TTR in human serum; time 1.250 h) | %FPE probe fluorescence (TTR in human serum; time 1.500 h) | %FPE probe fluorescence (TTR in human serum; time 1.750 h) | %FPE probe fluorescence (TTR in human serum; time 2.000 h) | %FPE probe fluorescence (TTR in human serum; time 2.250 h) | %FPE probe fluorescence (TTR in human serum; time 2.500 h) | %FPE probe fluorescence (TTR in human serum; time 2.750 h) | %FPE probe fluorescence (TTR in human serum; time 3.000 h) | %FPE probe fluorescence (TTR in human serum; time 3.500 h) | %FPE probe fluorescence (TTR in human serum; time 3.750 h) | %FPE probe fluorescence (TTR in human serum; time 4.000 h) | %FPE probe fluorescence (TTR in human serum; time 4.250 h) | %FPE probe fluorescence (TTR in human serum; time 4.500 h) | other results
1 | CN1CC[C@]23c4c5ccc(O)c4O[C@H]2[C@@H](O)C=C[C@H]3[C@H]1C5 [Morphine, reference compound] | 57.0 ± 2.5 s and 60 s |  |  |  |  |  |  |  |  |  |  |  |  |  |  |  |  |  |  |  | hot plate latency (male Sprague-Dawley rats [1]; iv): 60 s; hot plate latency, compound alone (male Sprague-Dawley rats [1]; sc): 60 s; GI transit as % of saline group (male Sprague-Dawley rats [2]; sc): 18.81% and 20.1% and 15.01% and 14.94% and 19.9%
2 | O=C(O)c1ccc2nc(-c3cc(Cl)cc(Cl)c3)oc2c1 [Tafamidis, reference compound] |  | 47.45% and 46.83% and 51.34% and 50.15% | 0.000 | 1.299% and -1.005% and 0.704% and 3.155% | 4.449% and 1.397% and 6.031% and 9.730% | 5.578% and 5.344% and 9.630% and 15.940% | 17.103% and 15.634% and 16.546% and 22.347% | 23.082% and 19.584% and 22.707% and 26.257% | 27.125% and 23.274% and 25.961% and 28.688% | 32.902% and 29.136% and 30.570% and 32.212% | 35.080% and 33.047% and 36.500% and 37.379% | 40.669% and 40.161% and 39.661% and 42.469% | 46.027% and 42.493% and 42.354% and 44.462% | 50.625% and 47.468% and 47.510% and 47.875% | 53.169% and 48.662% and 49.846% and 52.554% | 60.381% and 56.275% and 57.091% and 59.281% | 61.493% and 61.080% and 58.641% and 60.288% | 65.122% and 63.511% and 61.468% and 61.493% | 66.463% and 64.406% and 63.696% and 64.254% | 68.966% and 68.075% and 65.963% and 66.999% | % TTR occupancy in human serum (TTR in human serum; listed as tafamidis): 48.9 ± 2.2%; %FPE probe fluorescence (TTR in human serum; time 4.750 h): 72.160% and 67.655% and 67.312% and 67.678%; %FPE probe fluorescence (TTR in human serum; time 5.000 h): 70.882% and 70.753% and 66.636% and 68.909%; %FPE probe fluorescence (TTR in human serum; time 5.250 h): 72.950% and 73.018% and 69.707% and 71.230%; %FPE probe fluorescence (TTR in human serum; time 5.500 h): 75.965% and 73.410% and 70.521% and 70.704%; %FPE probe fluorescence (TTR in human serum; time 5.750 h): 76.955% and 73.721% and 71.869% and 74.221%; %FPE probe fluorescence (TTR in human serum; time 6.000 h): 78.267% and 76.878% and 72.520% and 75.177%
3 | COc1ccc2c3c1O[C@H]1C(=O)CC[C@@]4(O)[C@@H](C2)N(C)CC[C@]314 [Oxycodone, reference compound] | 56.8 ± 3.8 s |  |  |  |  |  |  |  |  |  |  |  |  |  |  |  |  |  |  |  | analgesia (hot plate) (male Sprague-Dawley rats [1]): did not result in significant analgesia or constipation; analgesic effect 1 hour after ICV dosing (male Sprague-Dawley rats [1]): no analgesic effect; GI transit (% of vehicle) (male Sprague-Dawley rats [2]): 18.7 ± 3.0%; constipation (GI transit) (male Sprague-Dawley rats [2]): did not result in significant analgesia or constipation; GI transit (% of vehicle) (male Sprague-Dawley rats [2]; sc): 8.0 ± 2.7%; GI transit as % of vehicle group (male Sprague-Dawley rats [2]; sc): 4.72% and 11.93% and 8.19% and 6.37% and 8.96%; k [3]: 0.9 ± 0.12 h⁻¹; AUC(0-inf) (in vivo [4]): 4.85 ± 0.676 µM·h; CL/F (in vivo [4]): 55.3 mL/min/kg; half-life (in vivo [4]): 46.8 ± 5.4 min
4 | C=CCN1CC[C@]23c4c5ccc(O)c4O[C@H]2C(=O)CC[C@@]3(O)[C@H]1C5 [Naloxone, reference compound] |  |  |  |  |  |  |  |  |  |  |  |  |  |  |  |  |  |  |  |  | k [3]: 1.03 ± 0.1 h⁻¹; AUC(0-inf) (in vivo [5]): 1.46 ± 0.257 µM·h; Vd (in vivo [5]): 1.23 ± 0.42 L/kg; clearance (in vivo [5]): 56.5 mL/min/kg; half-life (in vivo [5]): 52.2 ± 7.8 min; k [6]: 0.81 ± 0.13 h⁻¹; AUC(0-inf) (in vivo [4]): 1.76 ± 0.237 µM·h; CL/F (in vivo [4]): 152 mL/min/kg; Vd/F (in vivo [4]): 8.94 ± 2.08 L/kg; half-life (in vivo [4]): 40.2 ± 4.2 min
5 | Cc1n[nH]c(C)c1CCCOc1cc(C(=O)O)ccc1F [AG10, reference compound] |  | 97.40% and 95.62% and 96.92% and 97.81% | 0.000 | 0.700% and 0.333% and 1.346% and -0.971% | 0.446% and 0.461% and 3.649% and -0.301% | -1.954% and 0.832% and 3.724% and 2.441% | -0.363% and 4.377% and 2.966% and 3.350% | 2.954% and 2.394% and 3.246% and -1.477% | 2.170% and 0.641% and 2.641% and 0.126% | 0.743% and 3.255% and 1.620% and 2.521% | 4.231% and 0.837% and 2.557% and 0.855% | 5.793% and 2.286% and 2.057% and 0.029% | 6.054% and 2.118% and 3.144% and 0.438% | 2.727% and 2.921% and 3.595% and 1.032% | 2.597% and 4.380% and 3.077% and 2.193% | 3.724% and 3.796% and 4.505% and 2.484% | 3.879% and 3.578% and 5.075% and 1.835% | 3.514% and 5.359% and 4.237% and 1.611% | 3.887% and 3.398% and 4.915% and 2.063% | 4.733% and 4.892% and 5.145% and 3.486% | %FPE probe fluorescence (TTR in human serum; time 4.750 h): 6.115% and 5.517% and 7.470% and 4.138%; %FPE probe fluorescence (TTR in human serum; time 5.000 h): 6.088% and 5.023% and 7.566% and 3.162%; %FPE probe fluorescence (TTR in human serum; time 5.250 h): 5.909% and 5.424% and 7.406% and 4.467%; %FPE probe fluorescence (TTR in human serum; time 5.500 h): 6.587% and 5.102% and 7.881% and 3.568%; %FPE probe fluorescence (TTR in human serum; time 5.750 h): 6.453% and 4.461% and 7.648% and 5.604%; %FPE probe fluorescence (TTR in human serum; time 6.000 h): 4.737% and 6.705% and 8.837% and 3.939%
